In general, IC50 refers to the point on the concentration scale where inhibition reaches its midpoint. For orientation: Tmax means the time from dosing to the highest level. One may read the Cmax as the highest concentration seen after dosing. Broadly, the half-life is how long it takes for the measured level to halve. The low end stands for rapid decline, the high end for slow decline. As usually defined, the AUC(0-t) is the area under the concentration-time curve up to a stated or last time point. As a reminder, the AUC(0-inf) is the area under the concentration-time curve extrapolated to infinity. Read a low AUC(0-inf) as less exposure.

The values that follow come from ChEMBL document CHEMBL3992504 (Eur J Med Chem, 2017).

Each structure is given as a SMILES string.

Data set [1] concerns the target ALK tyrosine kinase receptor (Homo sapiens) (UniProt Q9UM73).
Description: Inhibition of EML4 fused ALK in human NCI-H3122 cells assessed as cell growth inhibition measured after 72 hrs by SRB assay
For data set [2] the target is unchanged. The source holds these as a separate data set.
Description: Inhibition of EML4 fused ALK (unknown origin) expressed in mouse BA/F3 cells assessed as cell growth inhibition measured after 72 hrs by SRB assay
Data set [3] deals with ALK tyrosine kinase receptor (Homo sapiens, UniProt Q9UM73, G1202R). The data set can be described thus: Inhibition of ALK G1202R mutant (unknown origin) using peptide as substrate measured after 30 mins by fluorescence assay.
ALK tyrosine kinase receptor (Homo sapiens, UniProt Q9UM73, G1202R), sequence (Q9UM73 19-1620 G1202R limits assumed): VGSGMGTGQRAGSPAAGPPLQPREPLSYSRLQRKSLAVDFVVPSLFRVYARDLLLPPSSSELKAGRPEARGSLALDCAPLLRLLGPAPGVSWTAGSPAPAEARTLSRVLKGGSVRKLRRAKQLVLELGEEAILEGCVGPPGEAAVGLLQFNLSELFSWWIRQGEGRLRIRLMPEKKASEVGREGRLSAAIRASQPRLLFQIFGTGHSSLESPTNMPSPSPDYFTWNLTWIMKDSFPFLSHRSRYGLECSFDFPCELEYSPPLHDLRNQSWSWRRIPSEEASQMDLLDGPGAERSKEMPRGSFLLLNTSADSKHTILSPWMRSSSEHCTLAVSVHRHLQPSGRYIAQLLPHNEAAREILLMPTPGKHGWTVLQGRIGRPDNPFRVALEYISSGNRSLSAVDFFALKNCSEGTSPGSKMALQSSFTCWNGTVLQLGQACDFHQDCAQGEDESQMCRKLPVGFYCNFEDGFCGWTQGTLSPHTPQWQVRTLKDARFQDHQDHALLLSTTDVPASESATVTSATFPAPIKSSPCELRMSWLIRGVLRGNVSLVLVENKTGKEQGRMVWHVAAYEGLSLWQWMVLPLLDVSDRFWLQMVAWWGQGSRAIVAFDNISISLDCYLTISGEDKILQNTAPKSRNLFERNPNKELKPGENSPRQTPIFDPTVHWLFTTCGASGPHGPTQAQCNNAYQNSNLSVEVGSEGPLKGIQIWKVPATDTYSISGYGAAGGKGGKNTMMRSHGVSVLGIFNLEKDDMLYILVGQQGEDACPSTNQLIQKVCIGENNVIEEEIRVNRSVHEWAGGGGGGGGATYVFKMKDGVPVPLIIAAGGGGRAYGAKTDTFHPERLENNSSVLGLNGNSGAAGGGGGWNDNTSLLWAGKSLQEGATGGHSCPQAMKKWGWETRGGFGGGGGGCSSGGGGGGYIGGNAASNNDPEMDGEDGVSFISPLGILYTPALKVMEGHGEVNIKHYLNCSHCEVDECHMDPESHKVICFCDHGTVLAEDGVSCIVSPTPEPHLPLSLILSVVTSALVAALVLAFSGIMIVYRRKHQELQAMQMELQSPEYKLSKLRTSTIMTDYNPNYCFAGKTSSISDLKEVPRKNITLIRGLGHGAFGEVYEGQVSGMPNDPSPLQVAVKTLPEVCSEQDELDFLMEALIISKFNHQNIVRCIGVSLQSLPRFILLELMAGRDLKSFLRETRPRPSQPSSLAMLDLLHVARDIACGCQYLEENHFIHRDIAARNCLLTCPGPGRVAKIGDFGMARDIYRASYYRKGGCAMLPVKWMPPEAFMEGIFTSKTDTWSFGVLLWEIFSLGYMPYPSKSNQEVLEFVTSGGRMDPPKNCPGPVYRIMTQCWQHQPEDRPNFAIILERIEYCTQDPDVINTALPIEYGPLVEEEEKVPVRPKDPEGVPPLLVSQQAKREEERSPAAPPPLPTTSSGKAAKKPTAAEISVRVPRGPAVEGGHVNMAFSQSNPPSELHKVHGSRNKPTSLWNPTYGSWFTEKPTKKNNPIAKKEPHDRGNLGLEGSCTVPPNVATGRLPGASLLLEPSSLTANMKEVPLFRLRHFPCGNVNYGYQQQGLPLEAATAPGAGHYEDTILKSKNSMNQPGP
The target in data set [4] is ALK tyrosine kinase receptor (Homo sapiens, UniProt Q9UM73, G1269A). The data set can be described thus: Inhibition of ALK G1269A mutant (unknown origin) using peptide as substrate measured after 30 mins by fluorescence assay.
ALK tyrosine kinase receptor (Homo sapiens, UniProt Q9UM73, G1269A), sequence (Q9UM73 19-1620 G1269A limits assumed): as the sequence (Q9UM73 19-1620 G1202R limits assumed) above, with R1184G, G1251A counted along it
Data set [5] is described as follows: Inhibition of ALK T1151-L1152 insT mutant (unknown origin) using peptide as substrate measured after 30 mins by fluorescence assay. Also on record: species or system Homo sapiens.
For data set [6], the target named is ALK tyrosine kinase receptor (Homo sapiens, UniProt Q9UM73, F1174L). Briefly: Inhibition of ALK F1174L mutant (unknown origin) using peptide as substrate measured after 30 mins by fluorescence assay.
ALK tyrosine kinase receptor (Homo sapiens, UniProt Q9UM73, F1174L), sequence (Q9UM73 19-1620 F1174L limits assumed): as the sequence (Q9UM73 19-1620 G1202R limits assumed) above, with F1156L, R1184G counted along it
In data set [7] the target is ALK tyrosine kinase receptor (Homo sapiens, UniProt Q9UM73, C1156Y). Briefly: Inhibition of ALK C1156Y mutant (unknown origin) using peptide as substrate measured after 30 mins by fluorescence assay.
ALK tyrosine kinase receptor (Homo sapiens, UniProt Q9UM73, C1156Y), sequence (Q9UM73 19-1620 C1156Y limits assumed): as the sequence (Q9UM73 19-1620 G1202R limits assumed) above, with C1138Y, R1184G counted along it
A short description of data set [8]: Tmax in rat at 10 mg/kg administered via oral gavage by LC/MS/MS analysis. The data set is classed as ADME, organism-based. To be noted: in vivo.
Data set [9] is described as follows: Cmax in rat at 10 mg/kg administered via oral gavage by LC/MS/MS analysis. The data set is classed as ADME, organism-based. Details: dose 10 mg/kg, route oral. To be noted: in vivo.
A short description of data set [10]: Half life in rat at 10 mg/kg administered via oral gavage by LC/MS/MS analysis. To be noted: in vivo. The data set is classed as ADME, organism-based.
A short description of data set [11]: AUCt in rat at 10 mg/kg administered via oral gavage by LC/MS/MS analysis. The data set is classed as ADME, organism-based. To be noted: in vivo.
Data set [12] in a line: AUC (infinity) in rat at 10 mg/kg administered via oral gavage by LC/MS/MS analysis. As to conditions: in vivo. Details: dose 10 mg/kg, time infinity, route oral. The data set is classed as ADME, organism-based.
For data set [13], the system named is Mus musculus. Briefly: Toxicity in BALB/c nu/nu mouse xenografted with human NCI-H3122 cells assessed as change in body weight at 50 mg/kg administered via oral gavage for 14 days. The data set is classed as organism-based. To be noted: in vivo, 336 h. A general note: In xenograft studies the graft and the host belong to different species.

ALK tyrosine kinase receptor (Homo sapiens), sequence (Q9UM73 19-1620 limits assumed): as the sequence (Q9UM73 19-1620 G1202R limits assumed) above, with R1184G counted along it

On to `COc1cc(CCN)c(C)cc1Nc1ncc(Cl)c(Nc2ccccc2S(=O)(=O)C(C)C)n1`, for which the CC50 in data set [1] was found to be 60 nM; in [2], 68 nM.

For the compound `COc1cc(C(C)(C)N)c(C)cc1Nc1ncc(Cl)c(Nc2ccccc2S(=O)(=O)C(C)C)n1`, the CC50 in [1] and in data set [2] was 12 nM each time.

Regarding `COc1cc(C(C)(C)CNC=O)c(C)cc1Nc1ncc(Cl)c(Nc2ccccc2S(=O)(=O)C(C)C)n1`, the figures for the CC50 in data set [1] and in data set [2] were 63 nM and 38 nM, respectively.

Take `COc1cc(CC#N)c(C)cc1Nc1ncc(Cl)c(Nc2ccccc2S(=O)(=O)C(C)C)n1`: the CC50 worked out at 74 nM in data set [1] and 61 nM in [2].

In the case of `COc1cc(CCNC=O)c(C)cc1Nc1ncc(Cl)c(Nc2ccccc2S(=O)(=O)C(C)C)n1`, the CC50 is 68 nM in data set [1] and 60 nM in [2].

`COc1cc(C(C)(C)CN)c(C)cc1Nc1ncc(Cl)c(Nc2ccccc2S(=O)(=O)C(C)C)n1`: the values for the CC50 in data set [1] and in data set [2] were 53 nM and 36 nM, respectively.

Consider `CNCCc1cc(OC)c(Nc2ncc(Cl)c(Nc3ccccc3S(=O)(=O)C(C)C)n2)cc1C`, for which the CC50 was found to be 20 nM in data set [1] and 13 nM in [2].

Consider `CNCC(C)(C)c1cc(OC)c(Nc2ncc(Cl)c(Nc3ccccc3S(=O)(=O)C(C)C)n2)cc1C`, for which the CC50 in data set [1] was 41 nM; in data set [2], 19 nM.

With `COc1cc(C(C)(C)N(C)C)c(C)cc1Nc1ncc(Cl)c(Nc2ccccc2S(=O)(=O)C(C)C)n1`, the values for the CC50 in [1] and in data set [2] were 35 nM and 20 nM, respectively.

For `COc1cc(C(C)(C)C#N)c(C)cc1Nc1ncc(Cl)c(Nc2ccccc2S(=O)(=O)C(C)C)n1`, the CC50 in data set [1] and in [2] was 250 nM in each case.

For `CNCc1cc(OC)c(Nc2ncc(Cl)c(Nc3ccccc3S(=O)(=O)C(C)C)n2)cc1C`, the CC50 in [1] is 25 nM; in [2], 15 nM.

For the compound `COc1cc(C(C)(C)CN(C)C)c(C)cc1Nc1ncc(Cl)c(Nc2ccccc2S(=O)(=O)C(C)C)n1`, the CC50 in data set [1] was 26 nM; in data set [2], 14 nM.

In [2], `COc1cc(CNC=O)c(C)cc1Nc1ncc(Cl)c(Nc2ccccc2S(=O)(=O)C(C)C)n1` had a CC50 of 15 nM.

For `COc1cc(C(C)(C)NC=O)c(C)cc1Nc1ncc(Cl)c(Nc2ccccc2S(=O)(=O)C(C)C)n1`, the CC50 was 52 nM in data set [1] and 24 nM in data set [2].

For `COc1cc(CN(C)C)c(C)cc1Nc1ncc(Cl)c(Nc2ccccc2S(=O)(=O)C(C)C)n1`, the results for the CC50 in [1] and in data set [2] were 37 nM and 21 nM, respectively.

In the case of `COc1cc(CCN(C)C)c(C)cc1Nc1ncc(Cl)c(Nc2ccccc2S(=O)(=O)C(C)C)n1`, the IC50 turned out to be 1.8 nM in [3]; 0.4 nM in [4]; 0.63 nM in data set [5]; 0.56 nM in [6]; 1.1 nM in data set [7]. Besides, the Tmax in [8] stood at 4 h. In data set [9], this compound returned a Cmax of 263 ng/mL. In [10], the half-life was 449 min. This compound also came in with an AUC(0-t) in data set [11] of 3750 ng·h/mL. Besides, the AUC(0-inf) in [12] is 4250 ng·h/mL. In addition, the Activity result in data set [13] is on record as “Non-Toxic”. The values for the CC50 in data set [1] and in data set [2] were 13 nM and 10 nM, respectively.

In turn, `Cc1cc(Nc2ncc(Cl)c(Nc3ccccc3S(=O)(=O)C(C)C)n2)c(OC(C)C)cc1C1CCNCC1` [CERITINIB] registered an IC50 in data set [5] of 0.63 nM. The Tmax in [8] came to 7.33 h. Also, the half-life in [10] was 618 min. This compound had an AUC(0-t) in [11] of 1380 ng·h/mL. The same compound yielded an AUC(0-inf) in data set [12] of 2650 ng·h/mL. The Activity result in [13] is listed as “Non-Toxic”.

As for `CNC(C)(C)c1cc(OC)c(Nc2ncc(Cl)c(Nc3ccccc3S(=O)(=O)C(C)C)n2)cc1C`, the CC50 in [1] is 29 nM; in data set [2] it was 15 nM.
